Results published in US20230013669A1, “Antibacterial Treatment Using a Cannabinoid and an Active Agent” (priority 2019, published 2023).
Where “and” joins values, the source holds several entries; their conditions need not be identical. Identical values can stand only once. Like-named read-outs stand apart in the source and are kept apart here.

Experiments:
[1] = test system: Klebsiella pneumoniae ATCC 700603; assay: Synergy of cannabidiol with cell-wall disrupting agent (CBD MIC in combination, FICI); type: cell-based; settings: for FICI: CBD MIC taken as 256 μg/mL; for MIC: Klebsiella pneumoniae
Experimental: Methods were as for Example 1. Cannabidiol was tested in combination with cefotetan.
Methods were as for Example 1. Cannabidiol was tested in combination with aztreonam.
Methods were as for Example 1. Cannabidiol was tested in combination with cefepime.
Methods were as for Example 1. Cannabidiol was tested in combination with octapeptin C4.
Methods were as for Example 1. Cannabidiol was tested in combination with Spero SPR206. The experiments were carried out three times.

[2] = test system: Enterobacter cloacae CI Patercon BoxNo: 79 (GN_016), MDR; assay: as above; settings: for MIC: Enterobacter cloacae
[3] = Example 8, GN_016, listed as CBD

`C=C(C)C1CCC(C)=CC1c1c(O)cc(CCCCC)cc1O` (centres unmarked) [Cannabidiol, 2-[3-methyl-6-(1-methylethenyl)-2-cyclohexen-1-yl]-5-pentyl-1,3-benzenediol] showed an FICI ([1]; CBD with Spero SPR206 at 0.015 μg/mL, 2nd of 3 experiments) of 1.03, an FICI ([1]; CBD with Spero SPR206 at 0.031 μg/mL, 2nd of 3 experiments) of 1.062 and an FICI ([1]; CBD with Spero SPR206 at 0.062 μg/mL, 2nd of 3 experiments) of 1.124. The FICI ([1]; CBD with Spero SPR206 at 0.25 μg/mL, 1st of 3 experiments) was 1, the FICI ([1]; CBD with Spero SPR206 at 0.25 μg/mL, 2nd of 3 experiments) was 0.5039 and the FICI ([1]; CBD with Spero SPR206 at 0.25 μg/mL, 3rd of 3 experiments) was 1.5. It also gave an FICI ([1]; CBD with Spero SPR206 at 0.5 μg/mL, 1st of 3 experiments) of 2, an FICI ([1]; CBD with Spero SPR206 at 0.5 μg/mL, 3rd of 3 experiments) of 2 and an FICI ([1]; CBD with Spero SPR206 at 1 μg/mL, 1st of 3 experiments) of 4. The FICI ([1]; CBD with Spero SPR206 at 1 μg/mL, 3rd of 3 experiments) was 3, the FICI ([1]; CBD with Spero SPR206 at 2 μg/mL, 1st of 3 experiments) was 8 and the FICI ([1]; CBD with Spero SPR206 at 2 μg/mL, 3rd of 3 experiments) was 4.004 and 4.008. The FICI ([1]; CBD with Spero SPR206 at 4 μg/mL, 1st of 3 experiments) was 16, the FICI ([1]; CBD with Spero SPR206 at 4 μg/mL, 3rd of 3 experiments) was 8 and the FICI ([1]; CBD with Spero SPR206 at […], 1st of 3 experiments) was 0.5156. For the same compound, the “CBD MIC with Cefotetan” value ([1]; Cefotetan at 0.015 μg/mL) was >32 µg/mL, the “CBD MIC with Cefotetan” value ([1]; Cefotetan at 0.031 μg/mL) was >32 µg/mL and the “CBD MIC with Cefotetan” value ([1]; Cefotetan at 0.062 μg/mL) was >32 µg/mL. For the same compound, the “CBD MIC with Cefotetan” value ([1]; Cefotetan at 0.25 μg/mL) was >32 µg/mL, the “CBD MIC with Cefotetan” value ([1]; Cefotetan at 0.5 μg/mL) was 0.001 µg/mL and the “CBD MIC with Cefotetan” value ([1]; Cefotetan at […]) was >32 µg/mL. The MIC ([1]; ATCC700603, Octapeptin C4 at 4 μg/mL, read-out: CBD MIC with Octapeptin C4) was 1 µg/mL, the MIC ([1]; ATCC700603, Spero SPR206 at 0.007 μg/mL, 2nd of 3 experiments, read-out: CBD MIC with Spero SPR206) was > 256 µg/mL and the MIC ([1]; ATCC700603, Spero SPR206 at 0.015 μg/mL, 2nd of 3 experiments, read-out: CBD MIC with Spero SPR206) was > 256 µg/mL. The MIC ([1]; ATCC700603, Spero SPR206 at 0.031 μg/mL, 2nd of 3 experiments, read-out: CBD MIC with Spero SPR206) was > 256 µg/mL, the MIC ([1]; ATCC700603, Spero SPR206 at 0.062 μg/mL, 2nd of 3 experiments, read-out: CBD MIC with Spero SPR206) was > 256 µg/mL and the MIC ([1]; ATCC700603, Spero SPR206 at 0.25 μg/mL, 1st of 3 experiments, read-out: CBD MIC with Spero SPR206) was 0.001 µg/mL. The MIC ([1]; ATCC700603, Spero SPR206 at 0.25 μg/mL, 2nd of 3 experiments, read-out: CBD MIC with Spero SPR206) was 1 µg/mL, the MIC ([1]; ATCC700603, Spero SPR206 at 0.25 μg/mL, 3rd of 3 experiments, read-out: CBD MIC with Spero SPR206) was > 256 µg/mL and the MIC ([1]; ATCC700603, Spero SPR206 at 0.5 μg/mL, 1st of 3 experiments, read-out: CBD MIC with Spero SPR206) was 0.001 µg/mL. For the same compound, the MIC ([1]; ATCC700603, Spero SPR206 at 0.5 μg/mL, 3rd of 3 experiments, read-out: CBD MIC with Spero SPR206) was > 256 µg/mL, the MIC ([1]; ATCC700603, Spero SPR206 at 1 μg/mL, 1st of 3 experiments, read-out: CBD MIC with Spero SPR206) was 0.001 µg/mL and the MIC ([1]; ATCC700603, Spero SPR206 at 1 μg/mL, 3rd of 3 experiments, read-out: CBD MIC with Spero SPR206) was > 256 µg/mL. The MIC ([1]; ATCC700603, Spero SPR206 at 2 μg/mL, 1st of 3 experiments, read-out: CBD MIC with Spero SPR206) was 0.001 µg/mL, the MIC ([1]; ATCC700603, Spero SPR206 at 2 μg/mL, 3rd of 3 experiments, read-out: CBD MIC with Spero SPR206) was 1 µg/mL and the MIC ([1]; ATCC700603, Spero SPR206 at 4 μg/mL, 1st of 3 experiments, read-out: CBD MIC with Spero SPR206) was 0.001 µg/mL. For the same compound, the MIC ([1]; ATCC700603, Spero SPR206 at 4 μg/mL, 3rd of 3 experiments, read-out: CBD MIC with Spero SPR206) was 0.001 µg/mL, the MIC ([1]; ATCC700603, read-out: CBD MIC with Spero SPR206, Spero SPR206 at […], 1st of 3 experiments) was 4 µg/mL and the MIC ([1]; ATCC700603, read-out: CBD MIC with Spero SPR206, Spero SPR206 at […], 2nd of 3 experiments) was 8 µg/mL. For the same compound, the “CBD MIC with Octapeptin C4” value ([1]; Octapeptin C4 at 4 μg/mL, listed as CBD) was 0.5 µg/mL, the “CBD MIC with Spero SPR206” value ([1]; Spero SPR206 at 2 μg/mL, 3rd of 3 experiments, listed as CBD) was 2 µg/mL and the MIC ([2]; read-out: CBD MIC with MCC_00636 at concentration 0.25 μg/mL, Example 8, GN_016) was 2 µg/mL. The MIC ([2]; read-out: CBD MIC with MCC_00636 at concentration 0.5 μg/mL, Example 8, GN_016) was 0.5 µg/mL, the MIC ([2]; read-out: CBD MIC with MCC_00636 at concentration 1 μg/mL, Example 8, GN_016) was 0.5 µg/mL and the MIC ([2]; read-out: CBD MIC with MCC_00636 at concentration 2 μg/mL, Example 8, GN_016) was 0.5 µg/mL. It also gave an MIC ([2]; read-out: CBD MIC with MCC_00636 at concentration 4 μg/mL, Example 8, GN_016) of 0.5 µg/mL, an MIC ([2]; read-out: CBD MIC with MCC_00636 at concentration 8 μg/mL, Example 8, GN_016) of 0.000977 µg/mL and an MIC ([2]; read-out: CBD MIC with MCC_09222 at concentration 8 μg/mL, Example 9, GN_016) of 2 µg/mL. It also gave an MIC ([2]; read-out: CBD MIC with MCC_09222 at concentration 16 μg/mL, Example 9, GN_016) of 1 µg/mL, an MIC ([2]; read-out: CBD MIC with MCC_09222 at concentration 32 μg/mL, Example 9, GN_016) of 1 µg/mL and an MIC ([2]; read-out: CBD MIC with MCC_09222 at concentration 64 μg/mL, Example 9, GN_016) of 1 µg/mL. The MIC ([2]; read-out: CBD MIC with MCC_09222 at concentration 128 μg/mL, Example 9, GN_016) was 1 µg/mL, the “cannabidiol combined with Polymyxin B: synergy” value ([2]; Example 8) was “synergy” and the “CBD MIC with MCC_00636 at concentration 0.5 μg/mL” value [2, 3] was 1 µg/mL. For the same compound, the “CBD MIC with MCC_00636 at concentration 1 μg/mL” value [2, 3] was 1 µg/mL, the “CBD MIC with MCC_00636 at concentration 2 μg/mL” value [2, 3] was 1 µg/mL and the “CBD MIC with MCC_00636 at concentration 4 μg/mL” value [2, 3] was 1 µg/mL. The “cannabidiol in combination with MCC_09222: synergy” value ([2]; Example 9) was “synergistic effect” and the “CBD MIC with MCC_09222 at concentration 16 μg/mL” value ([2]; Example 9, GN_016, listed as CBD) was 2 µg/mL.
